In US9067937B2 (priority 2012, dated 2015):
Where a name gives a salt, the structure may show the parent alone.

What was measured:
[1] = system: 22Rv1 cells; assay: Cell-based assay, anti-proliferative activity (Cell Counting Kit-8, 72 hours); design: species or system human; conditions: Homo sapiens, 22Rv1, 72 h, read-out: IC50 (μM) (22Rvl)
In short: (§1)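 Cells seeded at 2,000–3,000 cells/well and exposed to candidate MELK inhibitors for 72 hours; growth measured with Cell Counting Kit-8. IC50 values calculated from the growth read-out.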

[2] = system: A549 cells; assay: as above; design: species or system human; conditions: Homo sapiens, A549, 72 h, read-out: IC50 (μM) (A549)
In short: as §1

[3] = system: DU4475 cells; assay: as above; design: species or system human; conditions: Homo sapiens, DU-4475, 72 h, read-out: IC50 (μM) (DU4475)
In short: as §1

[4] = system: T47D cells; assay: as above; design: species or system human; conditions: Homo sapiens, T47D, 72 h, read-out: IC50 (μM) (T47D)
In short: as §1

[5] = target: MELK (Homo sapiens, UniProt Q14680); assay: Kinase assay (IMAP fluorescence polarization, FITC-labeled histone H3 peptide); format: biochemical; conditions: 50 micro-M ATP
In short: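 Kinase (0.8 ng/μL) reacted with 100 nM FITC-histone H3 peptide and 50 μM ATP in 20 mM HEPES, 0.3 mM MgCl2, 2 mM DTT, 0.01% Tween-20, pH 7.4, for 1 hour at room temperature. Phosphorylation read by IMAP fluorescence polarization after adding binding solution; IC50 from four-parameter fit.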

[6] = system: HT1197 cells; assay: Cell-based assay, anti-proliferative activity, MELK-negative control (Cell Counting Kit-8, 72 hours); design: species or system human; conditions: Homo sapiens, HT1197, 72 h, read-out: IC50 (μM) (HTll97)
Method: 100 micro-L of cell suspension was seeded onto 96-well microtiter plate (ViewPlate-96FTC, PerkinElmer). The initial cell concentration of 22Rv1, T47D, A549, DU4475, and HT1197 were 3,000 cells/well, 2,000 cells/well and 2,500 cells/well, respectively. Cellular growth was determined using Cell Counting Kit-8 (DOJINDO) at 72 hours after the exposure of the candidate inhibitors. […] Accurate IC50 values were calculated as described previously.

MELK, sequence (Q14680 whole entry, looked up): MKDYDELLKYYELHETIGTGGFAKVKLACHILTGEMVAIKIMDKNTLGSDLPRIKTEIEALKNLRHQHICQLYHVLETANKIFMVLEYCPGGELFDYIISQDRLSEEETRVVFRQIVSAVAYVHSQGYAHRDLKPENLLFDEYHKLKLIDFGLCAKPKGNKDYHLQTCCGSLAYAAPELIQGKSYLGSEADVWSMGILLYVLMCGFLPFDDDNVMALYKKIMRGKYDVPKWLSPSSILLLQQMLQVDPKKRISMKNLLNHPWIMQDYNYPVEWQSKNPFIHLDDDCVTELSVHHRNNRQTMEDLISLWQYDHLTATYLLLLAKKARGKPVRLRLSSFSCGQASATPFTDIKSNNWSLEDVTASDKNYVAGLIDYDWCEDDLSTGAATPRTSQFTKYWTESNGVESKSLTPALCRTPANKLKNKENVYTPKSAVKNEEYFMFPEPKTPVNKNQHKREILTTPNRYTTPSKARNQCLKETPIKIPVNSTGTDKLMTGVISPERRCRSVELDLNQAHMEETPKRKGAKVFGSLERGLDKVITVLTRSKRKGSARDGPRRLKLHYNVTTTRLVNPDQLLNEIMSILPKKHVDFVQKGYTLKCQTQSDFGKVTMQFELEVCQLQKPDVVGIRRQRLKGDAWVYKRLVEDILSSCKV

## CC(=O)c1cnc2ccc(-c3cc(F)c(O)c(Cl)c3)nc2c1N[C@H]1CC[C@H](CN(C)CCO)CC1 [Example 49, 1-[6-(3-Chloro-5-fluoro-4-hydroxyphenyl)-4-(trans-4-{[(2-hydroxyethyl)(methyl)amino]-methyl}cyclohexylamino)-1,5-naphthyridin-3-yl]ethanone dihydrochloride]
[1]
  IC50: 0.0087 µM
[2]
  IC50: 0.021 µM
[3]
  IC50: 0.0039 µM
[4]
  IC50: 0.0039 µM
[5]
  IC50: 0.001 µM
[6]
  IC50: 0.49 µM

## CC(=O)c1cnc2ccc(-c3cc(F)c(O)c(F)c3)nc2c1N[C@H]1CC[C@H](CN(C)C)CC1 [Example 50, 1-[6-(3,5-Difluoro-4-hydroxyphenyl)-4-{trans-4-[(dimethylamino)methyl]cyclohexylamino}-1,5-naphthyridin-3-yl]ethanone dihydrochloride]
[1]
  IC50: 0.017 µM
[2]
  IC50: 0.015 µM
[3]
  IC50: 0.0053 µM
[4]
  IC50: 0.0061 µM
[5]
  IC50: 0.0019 µM
[6]
  IC50: 0.08 µM

## CC(=O)c1cnc2ccc(-c3cc(Cl)c(O)c(Cl)c3)nc2c1Nc1ccc(N2CCC(N(C)C)C2)nc1 (stereo not drawn) [Example 51, 1-[6-(3,5-Dichloro-4-hydroxyphenyl)-4-{6-[3-(dimethylamino)pyrrolidin-1-yl]pyridin-3-ylamino}-1,5-naphthyridin-3-yl]ethanone trihydrochloride]
[1]
  IC50: 0.36 µM
[2]
  IC50: 0.32 µM
[3]
  IC50: 0.32 µM
[4]
  IC50: 0.19 µM
[5]
  IC50: 0.0082 µM
[6]
  IC50: 2.8 µM

## CC(=O)c1cnc2ccc(-c3cc(F)c(O)c(Cl)c3)nc2c1Nc1ccc(N2CCC(N(C)C)C2)nc1 (stereo not drawn) [Example 52, 1-[6-(3-Chloro-5-fluoro-4-hydroxyphenyl)-4-{6-[3-(dimethylamino)pyrrolidin-1-yl]pyridin-3-ylamino}-1,5-naphthyridin-3-yl]ethanone trihydrochloride]
[1]
  IC50: 0.44 µM
[2]
  IC50: 0.39 µM
[3]
  IC50: 0.4 µM
[4]
  IC50: 0.18 µM
[5]
  IC50: 0.027 µM
[6]
  IC50: 2 µM

## CNC1CCN(c2ccc(Nc3c(C(C)=O)cnc4ccc(-c5cc(Cl)c(O)c(Cl)c5)nc34)cn2)C1 (stereo not drawn) [Example 53, 1-(6-(3,5-Dichloro-4-hydroxyphenyl)-4-{6-[3-(methylamino)pyrrolidin-1-y]pyridin-3-ylamino}-1,5-naphthyridin-3-yl)ethanone trihydrochloride]
[1]
  IC50: 0.078 µM
[2]
  IC50: 0.2 µM
[3]
  IC50: 0.071 µM
[4]
  IC50: 0.042 µM
[5]
  IC50: 0.0015 µM
[6]
  IC50: 100 µM

## CNC1CCN(c2ccc(Nc3c(C(C)=O)cnc4ccc(-c5cc(F)c(O)c(Cl)c5)nc34)cn2)C1 (stereo not drawn) [Example 54, 1-(6-(3-Chloro-5-fluoro-4-hydroxyphenyl)-4-{6-[3-(methylamino)pyrrolidin-1-yl]pyridin-3-ylamino}-1,5-naphthyridin-3-yl)ethanone trihydrochloride]
[1]
  IC50: 0.086 µM
[2]
  IC50: 0.17 µM
[3]
  IC50: 0.11 µM
[4]
  IC50: 0.04 µM
[5]
  IC50: 0.012 µM
[6]
  IC50: 3.9 µM

## CC(=O)c1cnc2ccc(-c3ccc4[nH]cnc4c3)nc2c1N[C@H]1CC[C@H](CN(C)C)CC1 [Example 55, 1-(6-(1H-Benzo[d]imidazol-5-yl)-4-{trans-4-[(dimethylamino)methyl]cyclohexylamino}-1,5-naphthyridin-3-yl)ethanone trihydrochloride]
[1]
  IC50: 0.3 µM
[2]
  IC50: 0.25 µM
[3]
  IC50: 0.65 µM
[4]
  IC50: 0.084 µM
[5]
  IC50: 0.017 µM
[6]
  IC50: 2 µM

## CC(=O)c1cnc2ccc(-c3ccncc3)nc2c1N[C@H]1CC[C@H](CN(C)C)CC1 [Example 56, 1-{4-[4-(trans-4-Dimethylamino)methylcyclohexylamino]-6-(pyridin-4-yl)-1,5-naphthyridin-3-yl}ethanone trihydrochloride]
[1]
  IC50: 0.86 µM
[2]
  IC50: 0.52 µM
[3]
  IC50: 0.46 µM
[4]
  IC50: 0.38 µM
[5]
  IC50: 0.016 µM
[6]
  IC50: 1.7 µM

## CC(=O)c1cnc2ccc(-c3cnc(C#N)nc3)nc2c1N[C@H]1CC[C@H](CN(C)C)CC1 [Example 57, 5-(7-Acetyl-8-{trans-4-[(dimethylamino)methyl]cyclohexylamino}-1,5-naphthyridin-2-yl)pyrimidine-2-carbonitrile]
[1]
  IC50: 0.24 µM
[2]
  IC50: 0.56 µM
[3]
  IC50: 0.22 µM
[4]
  IC50: 0.089 µM
[5]
  IC50: 0.0012 µM
[6]
  IC50: 0.38 µM

## CC(=O)c1cnc2ccc(-c3c(C)n[nH]c3C)nc2c1N[C@H]1CC[C@H](CN(C)C)CC1 [Example 58, 1-(6-(3,5-Dimethyl-1H-pyrazol-4-yl)-4-{trans-4-[(dimethylamino)methyl]cyclohexylamino}-1,5-naphthyridin-3-yl)ethanone trihydrochloride]
[1]
  IC50: 6.1 µM
[2]
  IC50: 3 µM
[3]
  IC50: 5.9 µM
[4]
  IC50: 1.6 µM
[5]
  IC50: 1 µM
[6]
  IC50: 10 µM

## CC(=O)c1cnc2ccc(-c3cc(C)c(O)c(C)c3)nc2c1N[C@H]1CC[C@H](CN(C)C)CC1 [Example 59, 1-(4-{trans-4-[(Dimethylamino)methyl]-cyclohexylamino}-6-(4-hydroxy-3,5-dimethylphenyl)-1,5-naphthyridin-3-yl) ethanone dihydrochloride]
[1]
  IC50: 2.5 µM
[2]
  IC50: 0.23 µM
[3]
  IC50: 0.21 µM
[4]
  IC50: 0.39 µM
[5]
  IC50: 0.0047 µM
[6]
  IC50: 7.5 µM

## CC(=O)c1cnc2ccc(-c3cc(Cl)c(O)c(Cl)c3)nc2c1Nc1ccc(CN2CCCC2)cc1 [Example 60, dihydrochloride]
[1]
  IC50: 0.1 µM
[2]
  IC50: 0.11 µM
[3]
  IC50: 0.041 µM
[4]
  IC50: 0.066 µM
[5]
  IC50: 0.0043 µM
[6]
  IC50: 1.1 µM

## CC(=O)c1cnc2ccc(-c3cc(Cl)c(O)c(Cl)c3)nc2c1N[C@H]1CC[C@H](CN2CCCC2)CC1 [Example 61, 1-{6-(3,5-Dichloro-4-hydroxyphenyl)-4-[trans-4-(pyrrolidin-1-ylmethyl)cyclohexylamino]-1,5-naphthyridin-3-yl}ethanone dihydrochloride]
[1]
  IC50: 0.011 µM
[2]
  IC50: 0.012 µM
[3]
  IC50: 0.0044 µM
[4]
  IC50: 0.0069 µM
[5]
  IC50: 0.0004 µM
[6]
  IC50: 0.15 µM

## CC(=O)c1cnc2ccc(-c3cc(F)c(O)c(Cl)c3)nc2c1N[C@H]1CC[C@H](CN2CCCC2)CC1 [Example 62, 1-(6-(3-Chloro-5-fluoro-4-hydroxyphenyl)-4-{[trans-4-(pyrrolidin-1-ylmethyl)cyclohexyl]amino}-1,5-naphthyridin-3-yl)ethanone dihydrochloride]
[1]
  IC50: 0.0073 µM
[2]
  IC50: 0.011 µM
[3]
  IC50: 0.0037 µM
[4]
  IC50: 0.0034 µM
[5]
  IC50: 0.0009 µM
[6]
  IC50: 0.091 µM

## CC(=O)c1cnc2ccc(-c3cc(Cl)c(O)c(Cl)c3)nc2c1N[C@H]1CC[C@H](CN2CCN(C)CC2)CC1 [Example 63, 1-(6-(3,5-Dichloro-4-hydroxyphenyl)-4-{trans-4-[(4-methylpiperazin-1-yl)methyl]cyclohexyl-amino}-1,5-naphthyridin-3-yl)ethanone trihydrochloride]
[1]
  IC50: 0.025 µM
[2]
  IC50: 0.02 µM
[3]
  IC50: 0.0092 µM
[4]
  IC50: 0.016 µM
[5]
  IC50: 0.0008 µM
[6]
  IC50: 0.13 µM

## CC(=O)c1cnc2ccc(-c3cc(Cl)c(O)c(Cl)c3)nc2c1Nc1ccc(N2CCCC(N)C2)nc1 (stereo not drawn) [Example 64, 1-(4-{[6-(3-Aminopiperidin-1-yl)pyridin-3-yl]amino}-6-(3,5-dichloro-4-hydroxyphenyl)-1,5-naphthyridin-3-yl)ethanone trihydrochloride]
[1]
  IC50: 0.016 µM
[2]
  IC50: 0.07 µM
[3]
  IC50: 0.016 µM
[4]
  IC50: 0.0064 µM
[5]
  IC50: 0.0012 µM
[6]
  IC50: 2.9 µM

## CC(=O)c1cnc2ccc(-c3cc(F)c(O)c(Cl)c3)nc2c1Nc1ccc(N2CCCC(N)C2)nc1 (stereo not drawn) [Example 65, 1-(4-{[6-(3-Aminopiperidin-1-yl)pyridin-3-yl]amino}-6-(3-chloro-5-fluoro-4-hydroxyphenyl)-1,5-naphthyridin-3-yl)ethanone trihydrochloride]
[1]
  IC50: 0.013 µM
[2]
  IC50: 0.021 µM
[3]
  IC50: 0.015 µM
[4]
  IC50: 0.0047 µM
[5]
  IC50: 0.0031 µM
[6]
  IC50: 0.74 µM

## CC(=O)c1cnc2ccc(-c3cc(Cl)c(O)c(Cl)c3)nc2c1N[C@H]1CC[C@H](N)CC1 [Example 66, 1-{4-[trans-(4-Aminocyclohexyl)amino]-6-(3,5-dichloro-4-hydroxyphenyl)-1,5-naphthyridin-3-yl}-ethanone dihydrochloride]
[1]
  IC50: 0.0045 µM
[2]
  IC50: 0.016 µM
[3]
  IC50: 0.001 µM
[4]
  IC50: 0.0018 µM
[5]
  IC50: 0.0018 µM
[6]
  IC50: 10 µM

## CC(=O)c1cnc2ccc(-c3cc(F)c(O)c(Cl)c3)nc2c1N[C@H]1CC[C@H](N)CC1 [Example 67, 1-{4-[trans-(4-Aminocyclohexyl)amino]-6-(3-chloro-5-fluoro-4-hydroxyphenyl)-1,5-naphthyridin-3-yl}ethanone dihydrochloride]
[1]
  IC50: 0.0061 µM
[2]
  IC50: 0.022 µM
[3]
  IC50: 0.0012 µM
[4]
  IC50: 0.0019 µM
[5]
  IC50: 0.0012 µM
[6]
  IC50: 2.8 µM
